Test results reported in ChEMBL document CHEMBL1148679, “A novel iNOS and COX-2 inhibitor from the aerial parts of Rodgersia podophylla” (2006).

Experiments:
Conditions in all cases: Mus musculus
RAW264.7 [1] = assay: Decrease in iNOS level in LPS-activated Raw 264.7 cells; format: functional, cell-based
RAW264.7 [2] = assay: Decrease in COX2 level in LPS-activated Raw 264.7 cells; format: functional, cell-based
RAW264.7 [3] = assay: Inhibition of COX2 expression in LPS-activated Raw 264.7 cells at 3 uM; format: functional
RAW264.7 [4] = assay: Inhibition of iNOS expression in LPS-activated Raw 264.7 cells at 2 uM; format: functional

C/C=C/c1ccc(Oc2ccc(O)cc2)c(C(C)CO)c1 (centres undefined) [RODGERSINOL]
Activity (RAW264.7 [1]): Dose-dependent effect
Activity (RAW264.7 [2]): Dose-dependent effect
inhibition at 3 µM (RAW264.7 [3]): 50%
inhibition at 2 µM (RAW264.7 [4]): 50%
